In US10800807B2, “TGR5 modulators and methods of use thereof” (Intercept Pharmaceuticals, Inc., priority 2015, dated 2020):
Residue numbers refer to the chain shown, from its start. Converted amounts (≈) assume the structure as drawn. Where two headings read alike, the source gives them in different places.

Tests used:
[1] = Critical micellar concentration (surface tension / dye solubilization); assay type: physicochemical; conditions: BA sodium salts in 0.1 M NaCl, 25° C.
Protocol: In the first method, the surface tension was performed by maximum bubble-pressure method using a Sensadyne 6000 tensiometer (Chem-Dyne Research Corp., Milwaukee, Wis.). The surface tension of aqueous solutions at various concentrations (range 0.1-100 mM) of the BA sodium salts in 0.1 M NaCl was measured at 25° C. The surface tension values were plotted against the logarithm of the bile salt concentration; the regression lines corresponding to the two parts of the curve (monomeric and micellar phases) were calculated using the method of least squares. The critical micellar concentration (CMC) value (mM) was obtained by the intersection of the two lines.
The second method is based on the fact that some dyes, specifically Orange OT ([…]), are almost insoluble in water but dissolve in solutions with micellar aggregates that incorporate them; thus, the intensity of color of the solution increases with bile salt concentration (after CMC achievement). The amount of dye solubilized in relation to bile salt concentration was determined spectrophotometrically.
For each bile acid, various solution at different concentrations, between 50 mM and 0.1 mM with appropriate dilutions, were incubated under stirring at room temperature for 3 days with an excess of Orange OT. Then all the solutions were centrifuged and filtered through a 0.22 μm Millipore fiiter (Millipore Corp., Bedford, Mass.).

mTGR5 = molecular target: T1, mTGR5 (Mus musculus, UniProt Q80SS6); experiment: TGR5 activity: cAMP in mTGR5 CHO-Pi10 clone 4 cells; assay type: cell-based; conditions: for Emax: 0.5 h, read-out: (mTGR5 CHO) Efficacy
T1 construct: expressed in transfected cells; host or cells: CHO-Pi10 clone 4
T1 sequence (Q80SS6 1-329): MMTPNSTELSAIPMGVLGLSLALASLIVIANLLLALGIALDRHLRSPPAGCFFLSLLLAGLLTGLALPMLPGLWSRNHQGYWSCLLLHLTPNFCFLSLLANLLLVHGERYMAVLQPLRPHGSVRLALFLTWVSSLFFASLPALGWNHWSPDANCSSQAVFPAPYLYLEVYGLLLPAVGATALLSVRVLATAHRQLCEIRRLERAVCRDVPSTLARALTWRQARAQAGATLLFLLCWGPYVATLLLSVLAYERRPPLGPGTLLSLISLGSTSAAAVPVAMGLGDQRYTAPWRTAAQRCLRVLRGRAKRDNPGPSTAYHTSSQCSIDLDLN

[2] = molecular target: T2, human glutathione transferase-tagged FXR-LBD (Homo sapiens, UniProt Q96RI1); experiment: FXR AlphaScreen coactivator recruitment assay (human); assay type: biochemical; parameters: Emax: dose or concentration left out as unconfirmed; conditions: for EC50: human FXR-LBD, AlphaScreen, read-out: hFXR EC50; for Emax: read-out: hFXR Efficacy;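 as to hFXR Efficacy: CDCA at 50 µM taken as 100%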
T2 construct: human glutathione transferase-tagged FXR-LBD (Life Technologies, USA); purchased Life Technologies, USA
T2 sequence (Q96RI1 262-486 limits assumed): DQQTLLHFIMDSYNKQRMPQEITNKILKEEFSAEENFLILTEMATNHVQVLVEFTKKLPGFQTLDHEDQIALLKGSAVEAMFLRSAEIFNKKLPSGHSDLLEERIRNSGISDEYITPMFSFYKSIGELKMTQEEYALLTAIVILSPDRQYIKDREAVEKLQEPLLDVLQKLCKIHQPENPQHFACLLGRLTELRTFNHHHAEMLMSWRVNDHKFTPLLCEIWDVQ

bovine serum albumin = bovine serum albumin (Bos taurus, UniProt P02769); experiment: Albumin binding by equilibrium dialysis; assay type: in vitro ADME; conditions: 5% bovine serum albumin saline solution, 25° C.
Chain of bovine serum albumin (P02769 25-607): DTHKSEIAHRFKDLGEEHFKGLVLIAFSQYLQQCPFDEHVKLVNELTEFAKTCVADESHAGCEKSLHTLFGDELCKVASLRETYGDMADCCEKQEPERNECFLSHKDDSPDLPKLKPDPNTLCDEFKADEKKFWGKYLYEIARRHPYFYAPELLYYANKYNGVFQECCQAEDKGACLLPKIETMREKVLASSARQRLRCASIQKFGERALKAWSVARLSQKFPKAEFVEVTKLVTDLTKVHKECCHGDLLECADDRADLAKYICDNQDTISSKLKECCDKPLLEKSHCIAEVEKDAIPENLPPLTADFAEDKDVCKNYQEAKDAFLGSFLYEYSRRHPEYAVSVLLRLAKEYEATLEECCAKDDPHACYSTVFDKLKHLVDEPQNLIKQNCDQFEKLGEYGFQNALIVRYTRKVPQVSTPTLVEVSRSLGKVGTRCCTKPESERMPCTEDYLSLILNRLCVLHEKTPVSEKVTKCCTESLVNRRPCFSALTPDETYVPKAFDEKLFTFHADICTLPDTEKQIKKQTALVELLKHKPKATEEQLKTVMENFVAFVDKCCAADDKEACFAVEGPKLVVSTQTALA
Protocol: BA was dissolved at a concentration of […] in 5% bovine serum albumin saline solution and left to stand for 24 hours at 25° C. Two milliliters of this solution was dialyzed in cellulose sacs with a molecular weight cut-off of 12-14 kDa (Spectra/Por; Spectrum Medical Industries Inc., Rancho Dominguez, Calif.) against 25 ml of saline solution. The system was equilibrated by mechanical shaking for 72 hours at 25° C. BA concentrations in the starting solution and in the dialyzed solution were determined by HPLC-ES-MS/MS as reported below.

[3] = Critical micellar concentration (surface tension / dye solubilization); assay type: physicochemical
TGR5 [4] = molecular target: T3, TGR5 (Homo sapiens, UniProt Q8TDU6); experiment: TGR5 activity: intracellular cAMP levels, NCI-H716 cells (HTR-FRET); assay type: cell-based; parameters: endogenous in cells; host or cells: NCI-H716; conditions: for Emax: read-out: TGR5 (NCI-H716) Efficacy; for EC50: cAMP
T3 sequence (Q8TDU6 1-330): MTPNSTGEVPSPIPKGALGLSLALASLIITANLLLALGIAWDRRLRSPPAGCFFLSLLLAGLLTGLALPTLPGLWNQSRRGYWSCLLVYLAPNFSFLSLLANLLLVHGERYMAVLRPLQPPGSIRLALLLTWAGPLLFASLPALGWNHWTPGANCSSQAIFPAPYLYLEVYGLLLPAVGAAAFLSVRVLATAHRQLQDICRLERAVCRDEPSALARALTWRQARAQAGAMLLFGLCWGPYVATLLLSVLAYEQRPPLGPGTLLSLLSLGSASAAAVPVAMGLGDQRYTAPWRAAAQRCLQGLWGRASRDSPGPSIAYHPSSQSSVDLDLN
Protocol: Activation of TGR5 was assessed by measuring the level of cAMP using an HTR-FRET assay. Thus, NCI-H716 cells were cultured on 96-well plates coated with Matrigel (Corning, USA) (0.75 mg/ml) in DMEM supplemented with 10% FCS, 100 units/ml penicillin, and 100 μg/ml streptomycin sulphate. […] The level of intracellular cAMP was determined with Lance kit. Z′ factor was used to validate assays.

[5] = molecular target: T4, mouse glutathione transferase-tagged FXR-LBD (Mus musculus, UniProt Q60641); experiment: FXR AlphaScreen coactivator recruitment assay (mouse); assay type: biochemical; conditions: for EC50: read-out: (mFXR) EC50; for Emax: read-out: (mFXR) Efficacy
T4 construct: mouse glutathione transferase-tagged FXR-LBD (generated in-house); made in house
T4 sequence (Q60641 264-488 limits assumed): T2 sequence (Q96RI1 262-486 limits assumed) with H7D, F8Y, N46S, V50I, S95A, S98A, N107K, I125V, I174M, H175Y

[6] = Lipophilicity, 1-octanol/water partition coefficient (shake-flask); assay type: physicochemical; conditions: pH 8.00, ionized BA
Protocol: The experiments were carried out on 1 mM initial bile salt solution buffered at pH 8.00 with 0.1 M potassium phosphate buffer to ensure complete ionization of the BA. BA concentration in the water phase before and after partition in 1-octanol was measured by HPLC-ESMS/MS as reported below.

TGR5 [7] = molecular target: T3, TGR5; experiment: TGR5 activity: cAMP in hTGR5 CHO-k1 cells; assay type: cell-based; parameters: expressed in transfected cells; host or cells: CHO-k1; conditions: for Emax: 0.5 h, read-out: hTGR5 CHO Efficacy; for EC50: cAMP
Water solubility = assay type: physicochemical; conditions: simulated gastric fluid, thermodynamic from solid, 0.1 M HCl, pH 1.00, 25° C., read-out: Ws
Protocol: BA were suspended in 100 ml of 0.1 M HCl, pH 1.00, and the saturated solutions were transferred to a thermostat-equipped water bath maintained at 25° C. After incubation for 1 week, the solutions were filtered on a Millipore filter ([…]), and the concentration of BA was measured by HPLC-ESMS/MS as reported below.

[8] = mTGR5 CHO cells, value in parentheses
[9] = 1 h, NCI-H716 cells, Ref. LCA 100% at 10 μM
[10] = mouse FXR-LBD, value in parentheses
[11] = hTGR5 CHO cells, Ref. LCA 100% at 10 μM

CC[C@H]1[C@@H](O)C2C3CC[C@H]([C@H](C)C(F)(F)C(=O)O)[C@@]3(C)CCC2[C@@]2(C)CC[C@@H](O)C[C@@H]12 (stereo partly drawn) (hydrate or solvate)
melting point: 254 to 256 °C

CC[C@H]1[C@@H](O)C2C3CC[C@H]([C@H](C)CCc4noc(=O)[nH]4)[C@@]3(C)[C@@H](O)CC2[C@@]2(C)CC[C@@H](O)C[C@@H]12 (stereo partly drawn) [Compound 11, 3α,7α,12α-trihydroxy-6α-ethyl-24-nor-5β-23([1,2,4]-oxadiazole-3-one-5yl)-cholane]
CMC [1]: 5 mM
Emax (mTGR5; [8]): 108%
EC50 (mTGR5; [8]): 1400 nM
EC50 [2]: 1000 nM
Emax [2]: 140%
pKa (pKa): 5.94
Albumin binding (%) (bovine serum albumin): 84%
CMpH [3]: 7.0
Emax (TGR5 [4]; [9]): 105%
EC50 (TGR5 [4]; NCI-H716 cells): 2000 nM
EC50 [5, 10]: 7700 nM
Emax [5, 10]: 100%
LogPA− [6]: 1.6
Emax (TGR5 [7]; [11]): 96 ± 19%
EC50 (TGR5 [7]; hTGR5 CHO cells): 2700 ± 1800 nM
solubility thermodynamic at 1 week (Water solubility): 392 µM (≈ 187 µg/mL)

CC[C@H]1[C@@H](O)C2C3CC[C@H]([C@H](C)CCc4nn[nH]n4)[C@@]3(C)[C@@H](O)CC2[C@@]2(C)CC[C@@H](O)C[C@@H]12 (stereo partly drawn) [Compound 12, 3α,7α,12α-Trihydroxy-6α-ethyl-23-(tetrazol-5-yl)-24-nor-5β-cholane]
CMC [1]: 5 mM
Emax (mTGR5; [8]): 105%
EC50 (mTGR5; [8]): 840 nM
EC50 [2]: 1700 ± 600 nM
Emax [2]: 125 ± 15%
pKa (pKa): 5.59
Albumin binding (%) (bovine serum albumin): 83%
CMpH [3]: 6.6
Emax (TGR5 [4]; [9]): 104%
EC50 (TGR5 [4]; NCI-H716 cells): 4000 nM
EC50 [5, 10]: 12700 nM
Emax [5, 10]: 93%
LogPA− [6]: 1.5
Emax (TGR5 [7]; [11]): 101 ± 1.4%
EC50 (TGR5 [7]; hTGR5 CHO cells): 710 ± 80 nM
solubility thermodynamic at 1 week (Water solubility): 517 µM (≈ 238 µg/mL)

CC[C@@H]1C2C[C@H](O)CC[C@]2(C)C2CC[C@@]3(C)C(CC[C@@H]3[C@H](C)Cc3nc(=O)o[nH]3)C2[C@@H]1O (stereo partly drawn) [Compound 14]
CMC [1]: 10 mM
Emax (mTGR5; [8]): 111%
EC50 (mTGR5; [8]): 900 nM
EC50 [2]: 75 ± 10 nM
Emax [2]: 165 ± 15%
pKa (pKa): 5
Albumin binding (%) (bovine serum albumin): 99%
CMpH [3]: 5.0
Emax (TGR5 [4]; [9]): 110 ± 2%
EC50 (TGR5 [4]; NCI-H716 cells): 1600 ± 300 nM
EC50 [5, 10]: 460 nM
Emax [5, 10]: 264%
LogPA− [6]: 1.9
Emax (TGR5 [7]; [11]): 107 ± 1%
EC50 (TGR5 [7]; hTGR5 CHO cells): 480 ± 300 nM
solubility thermodynamic at 1 week (Water solubility): 2020 µM (≈ 904 µg/mL)

CC[C@H]1[C@@H](O)[C@@H]2[C@H](CC[C@]3(C)[C@@H]([C@H](C)CCc4nn[nH]n4)[C@@H](O)C[C@@H]23)[C@@]2(C)CC[C@@H](O)C[C@@H]12 [Compound 17, 3α,7α,16β-Trihydroxy-6α-ethyl-23-(tetrazol-5-yl)-24-nor-5β-cholane]
CMC [1]: 11 mM
Emax (mTGR5; [8]): 101%
EC50 (mTGR5; [8]): 800 nM
EC50 [2]: 450 ± 50 nM
Emax [2]: 138 ± 9%
pKa (pKa): 5.71
Albumin binding (%) (bovine serum albumin): 90%
CMpH [3]: 9.0
Emax (TGR5 [4]; [9]): 119 ± 2%
EC50 (TGR5 [4]; NCI-H716 cells): 1200 ± 100 nM
EC50 [5, 10]: 2300 nM
Emax [5, 10]: 171%
LogPA− [6]: 2.0
Emax (TGR5 [7]; [11]): 103 ± 2%
EC50 (TGR5 [7]; hTGR5 CHO cells): 100 ± 40 nM
solubility thermodynamic at 1 week (Water solubility): 5 µM (≈ 2.3 µg/mL)

CC[C@H]1[C@@H](O)C2C3CC[C@H]([C@H](C)CC(=O)NCCO)[C@@]3(C)CCC2[C@@]2(C)CC[C@@H](O)C[C@@H]12 (stereo partly drawn) [Compound 19, 3α,7α-Dihydroxy-6α-ethyl-N-(2-hydroxyethyl)-24-nor-5β-cholan-23-amide]
CMC [1]: 5 mM
Emax (mTGR5; CHO): 106%
EC50 (mTGR5; [8]): 80 nM
EC50 [2]: 3000 ± 1000 nM
Emax [2]: 137 ± 2%
pKa (pKa): 14.3
Albumin binding (%) (bovine serum albumin): 51%
CMpH [3]: 1.3
Emax (TGR5 [4]; NCI-H716, 1 h): 128 ± 1%
EC50 (TGR5 [4]; NCI-H716 cells): 160 ± 10 nM
EC50 [5, 10]: 10000 nM
Emax [5]: 122%
LogPA− [6]: 1.0
Emax (TGR5 [7]; CHO): 105 ± 2%
EC50 (TGR5 [7]; hTGR5 CHO cells): 20 ± 8 nM
solubility thermodynamic at 1 week (Water solubility): 2150 µM (≈ 967 µg/mL)
